{"source": "paper PMC8097444", "about": "(Antimicrobial Agents and Chemotherapy, 2021)", "key": {"SARS-CoV-2 3CL^pro": {"target": "SARS-CoV-2 3CL^pro (Severe acute respiratory syndrome coronavirus 2, UniProt P0DTD1)", "test": "SARS-CoV-2 3CLpro fluorogenic", "assay_type": "biochemical", "conditions": "for inhibition of 3CL^pro in screen: 10 μM drug, hit of 1,068 or 2,701 FDA-approved drug collection"}, "SARS-CoV-2": {"tested_on": "SARS-CoV-2", "conditions": "cited from earlier work"}, "COVID-19 patients": {"tested_on": "COVID-19 patients", "conditions": "cited from earlier work"}, "[1]": {"tested_on": "SARS-CoV-2 in human lung cells", "conditions": "in vitro assay; cited from earlier work"}, "SARS-CoV-2 PL^pro": {"target": "SARS-CoV-2 PL^pro (Severe acute respiratory syndrome coronavirus 2, UniProt P0DTD1)", "test": "SARS-CoV-2 PLpro fluorogenic inhibition assay: screening at 10 μM and IC50", "assay_type": "biochemical"}, "SARS-CoV-2 virus": {"tested_on": "SARS-CoV-2 virus", "assay_type": "cell-based", "conditions": "for selectivity index (SI): derived from CC50 and EC50"}, "SARS-CoV": {"tested_on": "SARS-CoV", "conditions": "read-out: EC50 against SARS-CoV; cited from earlier work"}, "[2]": {"conditions": "read-out: EC50 against SARS-CoV-2 in vitro"}}, "note": "Like-named read-outs stand apart in the source and are kept apart here."}
{"compound": "CC(C)(C)NC(=O)N[C@H](C(=O)N1C[C@H]2[C@@H]([C@H]1C(=O)NC(CC1CCC1)C(=O)C(N)=O)C2(C)C)C(C)(C)C", "note": "(stereo partly drawn) [Boceprevir]", "values": [{"measurement": "inhibition of 3CL^pro in screen", "setting": "SARS-CoV-2 3CL^pro", "result": "active at 10 μM"}]}
{"compound": "O=c1c2ccccc2[se]n1-c1ccccc1", "note": "[Ebselen]", "values": [{"measurement": "inhibition of 3CL^pro in screen", "setting": "SARS-CoV-2 3CL^pro", "result": "active at 10 μM"}]}
{"compound": "CCC(CC)COC(=O)[C@H](C)N[P@](=O)(OC[C@H]1O[C@@](C#N)(c2ccc3c(N)ncnn23)[C@H](O)[C@@H]1O)Oc1ccccc1", "note": "[Remdesivir]", "values": [{"measurement": "EC50", "setting": "SARS-CoV-2; read-out: EC50, SARS-CoV-2 viral replication", "result": 0.7, "unit": "µM"}, {"measurement": "benefit in clinical trials on COVID-19 patients", "setting": "COVID-19 patients", "result": 68, "unit": "%"}]}
{"compound": "CCN(CC)CCCC(C)Nc1ccnc2cc(Cl)ccc12", "note": "(stereo not drawn) [chloroquine]", "values": [{"measurement": "EC50", "setting": "SARS-CoV-2; [2]", "result": 1.13, "unit": "µM"}, {"measurement": "inhibitory effects on SARS-CoV-2 in human lung cells", "setting": "[1]", "result": "no inhibitory effects"}]}
{"compound": "NC(=O)c1nc(F)c[nH]c1=O", "note": "[favipiravir]", "values": [{"measurement": "inhibition of SARS-CoV-2 replication", "setting": "SARS-CoV-2", "result": "weak inhibition"}]}
{"compound": "CCN(CCO)CCCC(C)Nc1ccnc2cc(Cl)ccc12", "note": "(stereo not drawn) [hydroxychloroquine]", "values": [{"measurement": "inhibition of SARS-CoV-2 in vitro", "setting": "SARS-CoV-2", "result": "shown to inhibit SARS-CoV-2 in vitro"}, {"measurement": "clinical benefit against COVID-19", "setting": "COVID-19 patients", "result": "no clinical benefit"}]}
{"compound": "N[C@@H](Cc1cc(I)c(Oc2cc(I)c(O)c(I)c2)c(I)c1)C(=O)O", "note": "[levothyroxine]", "values": [{"measurement": "IC50", "setting": "SARS-CoV-2 3CL^pro", "result": "19.2 ± 1.2", "unit": "µM"}, {"measurement": "IC50", "setting": "SARS-CoV-2 PL^pro", "result": "15.3 ± 4.2", "unit": "µM"}, {"measurement": "inhibition of virus, postentry treatment", "setting": "SARS-CoV-2 virus", "result": "postentry treatment could not inhibit the virus"}, {"measurement": "reduction of viral plaques, full-time treatment", "setting": "SARS-CoV-2 virus", "result": "effective in reducing viral plaques"}, {"measurement": "selectivity index (SI)", "setting": "SARS-CoV-2 virus", "result": "> 14.3"}]}
{"compound": "CN(C)C(=O)C(CCN1CCC(O)(c2ccc(Cl)cc2)CC1)(c1ccccc1)c1ccccc1", "note": "[loperamide]", "values": [{"measurement": "inhibition of virus, postentry treatment", "setting": "SARS-CoV-2 virus", "result": "postentry treatment could still inhibit the virus"}, {"measurement": "reduction of viral plaques, full-time treatment", "setting": "SARS-CoV-2 virus", "result": "effective in reducing viral plaques"}, {"measurement": "antiviral activity, entry step", "setting": "SARS-CoV-2 virus; entry treatment", "result": "not the entry step"}]}
{"compound": "COC(=O)C1=C(C)NC(C)=C(C(=O)OCCN2CCN(C(c3ccccc3)c3ccccc3)CC2)C1c1cccc([N+](=O)[O-])c1", "note": "(stereo not drawn) [manidipine-2HCl]", "values": [{"measurement": "IC50", "setting": "SARS-CoV-2 3CL^pro", "result": "10.4 ± 1.6", "unit": "µM"}, {"measurement": "IC50", "setting": "SARS-CoV-2 PL^pro", "result": "14.2 ± 1.7", "unit": "µM"}, {"measurement": "inhibition of virus, postentry treatment", "setting": "SARS-CoV-2 virus", "result": "postentry treatment could still inhibit the virus"}, {"measurement": "reduction of viral plaques, full-time treatment", "setting": "SARS-CoV-2 virus", "result": "effective in reducing viral plaques"}, {"measurement": "selectivity index (SI)", "setting": "SARS-CoV-2 virus", "result": "> 6.9"}]}
{"compound": "CNCCCC12CCC(c3ccccc31)c1ccccc12", "note": "[maprotiline]", "values": [{"measurement": "antiviral activity, entry step", "setting": "SARS-CoV-2 virus", "result": "not the entry step"}, {"measurement": "inhibition of virus, postentry treatment", "setting": "SARS-CoV-2 virus", "result": "postentry treatment could still inhibit the virus"}, {"measurement": "reduction of viral plaques, full-time treatment", "setting": "SARS-CoV-2 virus", "result": "effective in reducing viral plaques"}]}
{"compound": "Nc1nc2c(ncn2CCC(CO)CO)c(=O)[nH]1", "note": "[penciclovir]", "values": [{"measurement": "inhibition of SARS-CoV-2 replication", "setting": "SARS-CoV-2", "result": "weak inhibition"}]}
{"compound": "COC(=O)[C@H]1[C@H]2C[C@@H]3c4[nH]c5cc(OC)ccc5c4CCN3C[C@H]2C[C@@H](OC(=O)c2cc(OC)c(OC)c(OC)c2)[C@@H]1OC", "note": "[reserpine]", "values": [{"measurement": "IC50", "setting": "SARS-CoV-2 PL^pro", "result": "5.7 ± 0.7", "unit": "µM"}, {"measurement": "EC50", "setting": "SARS-CoV", "result": 3.4, "unit": "µM"}, {"measurement": "reduction of viral plaques, full-time treatment", "setting": "SARS-CoV-2 virus", "result": "effective in reducing viral plaques"}, {"measurement": "selectivity index (SI)", "setting": "SARS-CoV-2 virus", "result": "> 15.2"}]}
{"compound": "NC(=O)c1ncn([C@@H]2O[C@H](CO)[C@@H](O)[C@H]2O)n1", "note": "[ribavirin]", "values": [{"measurement": "inhibition of SARS-CoV-2 replication", "setting": "SARS-CoV-2", "result": "weak inhibition"}]}
{"compound": "Cc1ccc(C(=O)c2cc(O)c(O)c([N+](=O)[O-])c2)cc1", "note": "[tolcapone]", "values": [{"measurement": "IC50", "setting": "SARS-CoV-2 3CL^pro", "result": 7.9, "unit": "µM"}, {"measurement": "inhibition of 3CL^pro in screen", "setting": "SARS-CoV-2 3CL^pro", "result": "active at 10 μM"}, {"measurement": "antiviral activity (figure not shown)", "setting": "SARS-CoV-2 virus; tolcapone", "result": "weak antiviral activity only at 50 μM"}]}
{"compound": "ivermectin", "values": [{"measurement": "EC50", "setting": "SARS-CoV-2; [2]", "result": 2.5, "unit": "µM"}]}
{"compound": "lopinavir/ritonavir", "values": [{"measurement": "inhibition of SARS-CoV-2 replication", "setting": "SARS-CoV-2", "result": "weak inhibition"}]}
